Source: patent publication US11497212B2, “Substituted thiophenyl uracils, salts thereof and the use thereof as herbicidal agents” (Syngenta Crop Protection AG, priority 2017, dated 2022)

Assays:
Assay type in all cases: in vivo
[1] = system: Zea mays; experiment: Crop compatibility post-emergence (greenhouse pot trial); details: application rate 20 g/ha
Procedure, shortened: (§1)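 Visual % damage vs untreated controls, ~3 wk post-spray (100% = plants died, 0% = as control). Plants in sandy loam, greenhouse, sprayed at one-leaf stage (2–3 wk after sowing); WP/EC in water + 0.5% additive, 600 L/ha.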

[2] = system: Oryza sativa; experiment: as above
Procedure, shortened: as §1

[3] = system: Triticum aestivum; experiment: as above
Procedure, shortened: as §1

[4] = system: Digitaria sanguinalis; experiment: Herbicidal action post-emergence (greenhouse pot trial)
Procedure, shortened: (§2)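 One-leaf-stage seedlings, 2–3 weeks old, are treated on their green parts with an aqueous emulsion or suspension of the test compound (WP or EC, 0.5% additive) using 600 L/ha of water at up to 80 g/ha. About 3 weeks on, percent kill is estimated visually versus untreated plants.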

[5] = system: Matricaria inodora; experiment: as above; details: scored visually after about 3 weeks vs untreated controls
Procedure, shortened: as §2

[6] = system: Veronica persica; experiment: as above
Procedure, shortened: as §2

[7] = system: Stellaria media; experiment: as above; details: scored visually after about 3 weeks vs untreated controls
Procedure, shortened: as §2

[8] = system: Amaranthus retroflexus; experiment: as above; details: scored visually after about 3 weeks vs untreated controls
Procedure, shortened: as §2

[9] = system: Echinochloa crus-galli; experiment: as above; details: scored visually after about 3 weeks vs untreated controls
Procedure, shortened: as §2

[10] = system: Pharbitis purpurea; experiment: as above
Procedure, shortened: as §2

[11] = system: Abutilon theophrasti; experiment: as above; details: scored visually after about 3 weeks vs untreated controls
Procedure, shortened: as §2

[12] = system: Viola tricolor; experiment: as above
Procedure, shortened: as §2

[13] = system: Polygonum convolvulus; experiment: as above; details: scored visually after about 3 weeks vs untreated controls
Procedure, shortened: as §2

[14] = system: Setaria viridis; experiment: as above; details: scored visually after about 3 weeks vs untreated controls
Procedure, shortened: as §2

[15] = system: Digitaria sanguinalis; experiment: Herbicidal action pre-emergence (greenhouse pot trial); details: application rate 80 g/ha
Procedure, shortened: (§3)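 Efficacy (%) was estimated visually about 3 wk post-application by comparing treated pots with untreated controls, where 0% denotes plants resembling controls and 100% denotes dead plants. Dose was 320 g/ha or less.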

[16] = system: Matricaria inodora; experiment: as above; details: scored after about 3 weeks
Procedure, shortened: as §3

[17] = system: Veronica persica; experiment: as above
Procedure, shortened: as §3

[18] = system: Stellaria media; experiment: as above; details: scored after about 3 weeks
Procedure, shortened: as §3

[19] = system: Amaranthus retroflexus; experiment: as above; details: scored after about 3 weeks
Procedure, shortened: as §3

[20] = system: Pharbitis purpurea; experiment: as above
Procedure, shortened: as §3

[21] = system: Abutilon theophrasti; experiment: as above; details: scored after about 3 weeks
Procedure, shortened: as §3

[22] = system: Viola tricolor; experiment: as above; details: scored after about 3 weeks
Procedure, shortened: as §3

[23] = system: Setaria viridis; experiment: as above; details: scored after about 3 weeks
Procedure, shortened: as §3

[24] = system: Zea mays; experiment: Crop compatibility pre-emergence (greenhouse pot trial); details: effect vs untreated controls
Procedure, shortened: (§4)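 After soil-surface application of each compound to freshly sown pots (aqueous spray, 600 L/ha, 0.5% additive), plants grew under greenhouse conditions. Around 3 weeks later, injury was estimated visually on a 0–100% scale against controls.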

[25] = system: Alopecurus myosuroides; experiment: Herbicidal action post-emergence (greenhouse pot trial); details: application rate 80 g/ha, scored visually after about 3 weeks vs untreated controls
Procedure, shortened: as §2

[26] = system: Lolium rigidum; experiment: as above; details: application rate 80 g/ha, scored visually after about 3 weeks vs untreated controls
Procedure, shortened: as §2

[27] = system: Hordeum murinum; experiment: as above; details: application rate 80 g/ha, scored visually after about 3 weeks vs untreated controls
Procedure, shortened: as §2

[28] = system: Alopecurus myosuroides; experiment: Herbicidal action pre-emergence (greenhouse pot trial); details: application rate 320 g/ha, scored after about 3 weeks
Procedure, shortened: as §3

[29] = system: Echinochloa crus-galli; experiment: as above; details: application rate 320 g/ha, scored after about 3 weeks
Procedure, shortened: as §3

[30] = system: Avena fatua; experiment: as above; details: application rate 320 g/ha
Procedure, shortened: as §3

[31] = system: Lolium rigidum; experiment: as above; details: application rate 320 g/ha
Procedure, shortened: as §3

[32] = system: Glycine max; experiment: Crop compatibility pre-emergence (greenhouse pot trial); details: effect vs untreated controls
Procedure, shortened: as §4

CC(Sc1cc(-n2c(=O)cc(C(F)(F)F)n(C)c2=O)c(F)cc1Cl)C(=O)OCC1CCSC1 (stereo not drawn) [I.1-82]
80%: Stellaria media (Efficacy in %) ([7]; application rate 20 g/ha) | Setaria viridis (Efficacy in %) ([14]; application rate 20 g/ha) | Digitaria sanguinalis (Efficacy in %) [15]
0%: Triticum aestivum (Efficacy in %) ([3]; application rate 5 g/ha) | Zea mays (Efficacy in %) ([24]; application rate 80 g/ha)
100%: Digitaria sanguinalis (Efficacy in %) ([4]; application rate 20 g/ha) | Matricaria inodora (Efficacy in %) ([5]; application rate 20 g/ha) | Veronica persica (Efficacy in %) ([6]; application rate 20 g/ha) | Amaranthus retroflexus (Efficacy in %) ([8]; application rate 20 g/ha) | Echinochloa crus-galli (Efficacy in %) ([9]; application rate 20 g/ha) | Pharbitis purpurea (Efficacy in %) ([10]; application rate 20 g/ha) | Abutilon theophrasti (Efficacy in %) ([11]; application rate 20 g/ha) | Viola tricolor (Efficacy in %) ([12]; application rate 20 g/ha) | Polygonum convolvulus (Efficacy in %) ([13]; application rate 20 g/ha) | Matricaria inodora (Efficacy in %) ([16]; application rate 80 g/ha) | Veronica persica (Efficacy in %) ([17]; application rate 80 g/ha) | Stellaria media (Efficacy in %) ([18]; application rate 80 g/ha) | Amaranthus retroflexus (Efficacy in %) ([19]; application rate 80 g/ha) | Pharbitis purpurea (Efficacy in %) ([20]; application rate 80 g/ha) | Abutilon theophrasti (Efficacy in %) ([21]; application rate 80 g/ha) | Viola tricolor (Efficacy in %) ([22]; application rate 80 g/ha) | Setaria viridis (Efficacy in %) ([23]; application rate 80 g/ha)
20%: Zea mays (Efficacy in %) [1]
10%: Oryza sativa (Efficacy in %) ([2]; application rate 20 g/ha)

Cn1c(C(F)(F)F)cc(=O)n(-c2cc(SCC(C)(C)C(=O)OCC3CCCO3)c(Cl)cc2F)c1=O (stereo not drawn) [I.48-71]
100%: Digitaria sanguinalis (Efficacy in %) ([4]; application rate 80 g/ha) | Matricaria inodora (Efficacy in %) ([5]; application rate 80 g/ha) | Veronica persica (Efficacy in %) ([6]; application rate 80 g/ha) | Stellaria media (Efficacy in %) ([7]; application rate 80 g/ha) | Amaranthus retroflexus (Efficacy in %) ([8]; application rate 80 g/ha) | Echinochloa crus-galli (Efficacy in %) ([9]; application rate 80 g/ha) | Pharbitis purpurea (Efficacy in %) ([10]; application rate 80 g/ha) | Abutilon theophrasti (Efficacy in %) ([11]; application rate 80 g/ha) | Viola tricolor (Efficacy in %) ([12]; application rate 80 g/ha) | Polygonum convolvulus (Efficacy in %) ([13]; application rate 80 g/ha) | Setaria viridis (Efficacy in %) ([14]; application rate 80 g/ha) | Digitaria sanguinalis (Efficacy in %) [15] | Matricaria inodora (Efficacy in %) ([16]; application rate 320 g/ha) | Veronica persica (Efficacy in %) ([17]; application rate 320 g/ha) | Stellaria media (Efficacy in %) ([18]; application rate 320 g/ha) | Amaranthus retroflexus (Efficacy in %) ([19]; application rate 320 g/ha) | Alopecurus myosuroides (Efficacy in %) [28] | Echinochloa crus-galli (Efficacy in %) [29] | Pharbitis purpurea (Efficacy in %) ([20]; application rate 320 g/ha) | Abutilon theophrasti (Efficacy in %) ([21]; application rate 320 g/ha) | Viola tricolor (Efficacy in %) ([22]; application rate 320 g/ha) | Setaria viridis (Efficacy in %) ([23]; application rate 320 g/ha)
90%: Alopecurus myosuroides (Efficacy in %) [25] | Lolium rigidum (Efficacy in %) [31]
80%: Lolium rigidum (Efficacy in %) [26] | Hordeum murinum (Efficacy in %) [27] | Avena fatua (Efficacy in %) [30]
20%: Oryza sativa (Efficacy in %) ([2]; application rate 20 g/ha) | Triticum aestivum (Efficacy in %) ([3]; application rate 20 g/ha) | Zea mays (Efficacy in %) ([24]; application rate 320 g/ha)
0%: Glycine max (Efficacy in %) ([32]; application rate 20 g/ha)

CCOCCOC(=O)C(C)Sc1cc(-n2c(=O)cc(C(F)(F)F)n(C)c2=O)c(F)cc1Cl (stereo not drawn) [I.1-2]
80%: Alopecurus myosuroides (Efficacy in %) [28]
100%: Digitaria sanguinalis (Efficacy in %) ([4]; application rate 80 g/ha) | Matricaria inodora (Efficacy in %) ([5]; application rate 80 g/ha) | Veronica persica (Efficacy in %) ([6]; application rate 80 g/ha) | Stellaria media (Efficacy in %) ([7]; application rate 80 g/ha) | Amaranthus retroflexus (Efficacy in %) ([8]; application rate 80 g/ha) | Echinochloa crus-galli (Efficacy in %) ([9]; application rate 80 g/ha) | Lolium rigidum (Efficacy in %) [26] | Pharbitis purpurea (Efficacy in %) ([10]; application rate 80 g/ha) | Abutilon theophrasti (Efficacy in %) ([11]; application rate 80 g/ha) | Viola tricolor (Efficacy in %) ([12]; application rate 80 g/ha) | Polygonum convolvulus (Efficacy in %) ([13]; application rate 80 g/ha) | Setaria viridis (Efficacy in %) ([14]; application rate 80 g/ha) | Digitaria sanguinalis (Efficacy in %) [15] | Matricaria inodora (Efficacy in %) ([16]; application rate 320 g/ha) | Veronica persica (Efficacy in %) ([17]; application rate 320 g/ha) | Stellaria media (Efficacy in %) ([18]; application rate 320 g/ha) | Amaranthus retroflexus (Efficacy in %) ([19]; application rate 320 g/ha) | Echinochloa crus-galli (Efficacy in %) [29] | Pharbitis purpurea (Efficacy in %) ([20]; application rate 320 g/ha) | Abutilon theophrasti (Efficacy in %) ([21]; application rate 320 g/ha) | Viola tricolor (Efficacy in %) ([22]; application rate 320 g/ha) | Setaria viridis (Efficacy in %) ([23]; application rate 320 g/ha)
90%: Alopecurus myosuroides (Efficacy in %) [25] | Avena fatua (Efficacy in %) [30] | Lolium rigidum (Efficacy in %) [31]
0%: Zea mays (Efficacy in %) ([24]; application rate 20 g/ha)
20%: Triticum aestivum (Efficacy in %) ([3]; application rate 5 g/ha)

Cn1c(C(F)(F)F)cc(=O)n(-c2cc(SCC(C)(C)C(=O)OCC3CCOC3)c(Cl)cc2F)c1=O (stereo not drawn) [I.48-72]
80%: Lolium rigidum (Efficacy in %) [26] | Avena fatua (Efficacy in %) [30] | Lolium rigidum (Efficacy in %) [31]
100%: Digitaria sanguinalis (Efficacy in %) ([4]; application rate 80 g/ha) | Matricaria inodora (Efficacy in %) ([5]; application rate 80 g/ha) | Veronica persica (Efficacy in %) ([6]; application rate 80 g/ha) | Stellaria media (Efficacy in %) ([7]; application rate 80 g/ha) | Amaranthus retroflexus (Efficacy in %) ([8]; application rate 80 g/ha) | Echinochloa crus-galli (Efficacy in %) ([9]; application rate 80 g/ha) | Pharbitis purpurea (Efficacy in %) ([10]; application rate 80 g/ha) | Abutilon theophrasti (Efficacy in %) ([11]; application rate 80 g/ha) | Viola tricolor (Efficacy in %) ([12]; application rate 80 g/ha) | Polygonum convolvulus (Efficacy in %) ([13]; application rate 80 g/ha) | Setaria viridis (Efficacy in %) ([14]; application rate 80 g/ha) | Digitaria sanguinalis (Efficacy in %) [15] | Matricaria inodora (Efficacy in %) ([16]; application rate 320 g/ha) | Veronica persica (Efficacy in %) ([17]; application rate 320 g/ha) | Stellaria media (Efficacy in %) ([18]; application rate 320 g/ha) | Amaranthus retroflexus (Efficacy in %) ([19]; application rate 320 g/ha) | Echinochloa crus-galli (Efficacy in %) [29] | Pharbitis purpurea (Efficacy in %) ([20]; application rate 320 g/ha) | Abutilon theophrasti (Efficacy in %) ([21]; application rate 320 g/ha) | Viola tricolor (Efficacy in %) ([22]; application rate 320 g/ha) | Setaria viridis (Efficacy in %) ([23]; application rate 320 g/ha)
10%: Oryza sativa (Efficacy in %) ([2]; application rate 20 g/ha) | Glycine max (Efficacy in %) ([32]; application rate 320 g/ha)
20%: Triticum aestivum (Efficacy in %) ([3]; application rate 20 g/ha)
90%: Alopecurus myosuroides (Efficacy in %) [25] | Alopecurus myosuroides (Efficacy in %) [28]
0%: Oryza sativa (Efficacy in %) ([2]; application rate 5 g/ha) | Zea mays (Efficacy in %) ([24]; application rate 320 g/ha)
